In BindingDB's records for patent US20250282741 (Innovo Therapeutics, 2025):

Target: T1, Serpin H1 (Human, UniProt P50454)
T1 sequence (P50454 whole entry): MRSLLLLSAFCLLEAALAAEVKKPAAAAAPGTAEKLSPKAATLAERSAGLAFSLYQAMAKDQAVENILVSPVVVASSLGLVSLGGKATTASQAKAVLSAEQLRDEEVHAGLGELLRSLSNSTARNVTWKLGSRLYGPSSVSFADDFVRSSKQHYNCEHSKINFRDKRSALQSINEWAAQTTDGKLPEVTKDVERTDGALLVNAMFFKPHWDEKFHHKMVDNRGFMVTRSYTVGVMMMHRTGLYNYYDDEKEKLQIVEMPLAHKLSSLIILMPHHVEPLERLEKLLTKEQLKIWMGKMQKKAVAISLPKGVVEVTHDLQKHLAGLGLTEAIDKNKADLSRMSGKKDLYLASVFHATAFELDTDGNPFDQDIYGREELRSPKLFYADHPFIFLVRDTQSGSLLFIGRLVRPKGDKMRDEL
Assay: Inhibition of HSP47 Function
Procedure: Fibrils were formed by adding 180 ul of phosphate-buffered saline (PBS, pH 7.4) solution to 20 ul of collagen dissolved in acidic solution (collagen solution, UK), which was measured at a wavelength of 340 nm. HSP47 (GenScript US) was added at a concentration of 9.45 μg/ml to assess HSP47 activity as the degree to which it inhibits fibril formation. Test compound was added with concentrations of 100 μM to 1 μM and the inhibitory activity of HSP47 was calculated as a percentage or EC50.

CCc1oc2cc(Cl)ccc2c1C(=O)c1cc(Br)c(O)c(Br)c1 [US20250282741, Example 12]
EC50: 73.1 µM

CCc1oc2c(Cl)cccc2c1C(=O)c1cc(I)c(O)c(I)c1 [US20250282741, Example 14]
EC50: 15.9 µM

CCc1oc2cc(C(F)(F)F)ccc2c1C(=O)c1cc(Br)c(O)c(Br)c1 [US20250282741, Example 22]
EC50: 32.1 µM
